Results published in patent publication US20060079453A1, “Hla binding peptides and their uses” (priority 2002, published 2006).
Read-outs that look alike come from different tables or passages of the source. No end group written: not given here.

Legend:
HLA-A*2902 = HLA-A*2902 (Homo sapiens, UniProt P04439, A270S/D101N/D185E/E176V/E277Q/E87Q/F33T/G231S/H175R/I121M/I218V/I322F/K168Q/L300P/L318F/M331R/P208A/P217A/Q86L/T323A/T345S/V100A/V358M); experiment: MHC molecular binding / Capture assay, IC50: A*2902
HLA-A*3002 = HLA-A*3002 (Homo sapiens, UniProt P04439, D101N/D140H/D185E/E176R/F33S/G80R/H175R/K168Q/Q94H/R138E/R41S/V100E); experiment: biochemical; format: binding
HLA-A*0202 = HLA-A*0202 (Homo sapiens, UniProt P04439, D140Y/D185E/D98H/E176V/E277Q/G131W/G231S/I119L/I121R/I166T/I218V/L180W/L300P/L318F/N151K/N90K/P208A/P217A/Q67R/Q86G/Q94H/R138H/R169H/T345S); experiment: biochemical; format: binding
HLA-A*0206 = HLA-A*0206 (Homo sapiens, UniProt P04439, D140Y/D185E/D98H/E176V/E277Q/F33Y/G131W/G231S/I119V/I121R/I166T/I218V/L300P/L318F/N151K/N90K/P208A/P217A/Q86G/Q94H/R138H/R169H/T345S); experiment: biochemical; format: binding
HLA-A*6802 = HLA-A*6802 (Homo sapiens, UniProt P04439, A269V/D140Y/D185E/E176V/E277Q/E87N/F33Y/G231S/I121R/I166T/I218V/L180W/L300P/L318F/N151K/P208A/P217A/Q86R/R138H/R169H/S129P/T345S/V36M); experiment: biochemical; format: binding
HLA-A*0203 = HLA-A*0203 (Homo sapiens, UniProt P04439, A173T/D140Y/D185E/D98H/E277Q/G131W/G231S/I119V/I121R/I166T/I218V/L180W/L300P/L318F/N151K/N90K/P208A/P217A/Q86G/Q94H/R138H/R169H/T345S); experiment: biochemical; format: binding
[1] = Binding affinity to A*2902 (expressed as an IC50)
[2] = Binding affinity to A*3002 (expressed as an IC50)
[3] = A*0202 binding affinity (expressed as an IC50)
[4] = A*0206 binding affinity (expressed as an IC50)
[5] = A*6802 binding affinity (expressed as an IC50)
[6] = A*0203 binding affinity (expressed as an IC50)

## CC(C)C[C@H](NC(=O)[C@H](C)NC(=O)[C@H](CO)NC(=O)[C@H](C)NC(=O)[C@@H](NC(=O)[C@H](CC(=O)O)NC(=O)[C@H](CC(C)C)NC(=O)[C@H](CC(C)C)NC(=O)[C@@H](N)CC(=O)O)[C@@H](C)O)C(=O)N[C@@H](Cc1ccc(O)cc1)C(=O)O
HLA-A*2902; [1]
  IC50: 74 nM

## CC[C@H](C)[C@H](NC(=O)[C@H](CCC(=O)O)NC(=O)[C@H](CC(C)C)NC(=O)[C@H](C)NC(=O)[C@H](CO)NC(=O)[C@H](CO)NC(=O)[C@H](CC(C)C)NC(=O)[C@@H](N)CCC(=O)O)C(=O)N1CCC[C@H]1C(=O)N[C@@H](Cc1ccc(O)cc1)C(=O)O
HLA-A*2902; [1]
  IC50: 6030 nM
HLA-A*3002; [2]
  IC50: 4470 nM

## CC[C@H](C)[C@H](NC(=O)[C@H](Cc1ccc(O)cc1)NC(=O)[C@H](Cc1ccccc1)NC(=O)[C@H](CCCNC(=N)N)NC(=O)[C@H](CC(N)=O)NC(=O)[C@H](CCSC)NC(=O)[C@@H](N)Cc1ccccc1)C(=O)N[C@H](C(=O)N[C@H](C(=O)O)[C@@H](C)O)[C@@H](C)O
HLA-A*0202; [3]
  IC50: 18 nM
HLA-A*0206; [4]
  IC50: 996 nM
HLA-A*6802; [5]
  IC50: 6540 nM

## CC(C)C[C@H](NC(=O)[C@H](Cc1c[nH]cn1)NC(=O)[C@H](CC(C)C)NC(=O)[C@H](CCCCN)NC(=O)[C@H](CCCNC(=N)N)NC(=O)CNC(=O)[C@H](Cc1ccc(O)cc1)NC(=O)[C@@H](NC(=O)[C@@H](N)CCCCN)[C@@H](C)O)C(=O)N[C@@H](Cc1ccc(O)cc1)C(=O)O
HLA-A*2902; [1]
  IC50: 27 nM
HLA-A*3002; [2]
  IC50: 1.5 nM

## CC(C)C[C@H](NC(=O)[C@H](CO)NC(=O)[C@@H](N)CC(C)C)C(=O)N[C@@H](CC(=O)O)C(=O)N[C@H](C(=O)N[C@@H](CO)C(=O)N[C@@H](C)C(=O)N[C@@H](C)C(=O)N[C@@H](Cc1ccccc1)C(=O)N[C@@H](Cc1ccc(O)cc1)C(=O)O)C(C)C
HLA-A*2902; [1]
  IC50: 12 nM

## CC[C@H](C)[C@H](NC(=O)[C@@H](N)C(C)C)C(=O)N[C@@H](CS)C(=O)N[C@@H](CO)C(=O)N[C@@H](Cc1ccccc1)C(=O)N[C@@H](CC(C)C)C(=O)N[C@H](C(=O)N[C@@H](Cc1ccccc1)C(=O)N[C@@H](CC(C)C)C(=O)N[C@H](C(=O)O)C(C)C)C(C)C
HLA-A*0202; [3]
  IC50: 415 nM
HLA-A*0203; [6]
  IC50: 2920 nM
HLA-A*0206; [4]
  IC50: 197 nM
HLA-A*6802; [5]
  IC50: 1950 nM

## AMAKAAAAV
HLA-A*0203; [6]
  IC50: 6.7 nM
HLA-A*0206; [4]
  IC50: 1480 nM
HLA-A*6802; [5]
  IC50: 177 nM

## AYGPGPGKI
HLA-A*2902; A*2902 binding affinity (IC50)
  IC50: > 156000 nM
HLA-A*3002; A*3002 binding affinity (IC50)
  IC50: 5430 nM

## CYSLYGTTF
HLA-A*3002
  IC50: 7820 nM

## ELEASISGKY
HLA-A*2902; [1]
  IC50: 21900 nM

## FGVRPQVPL
HLA-A*6802
  IC50: 321 nM

## FLKEKGGV
HLA-A*0202
  IC50: 653 nM
HLA-A*0206
  IC50: > 14300 nM
HLA-A*6802
  IC50: > 19500 nM

## FPFKYAAAV
HLA-A*6802; [5]
  IC50: 92 nM

## FVSSIFISFY
HLA-A*2902; [1]
  IC50: 22 nM
HLA-A*3002; [2]
  IC50: 84 nM

## IISAVVAIL
HLA-A*0202; [3]
  IC50: 8 nM
HLA-A*0203; [6]
  IC50: 45 nM
HLA-A*0206; [4]
  IC50: 1440 nM
HLA-A*6802; [5]
  IC50: 148 nM

## ITEYRHYNY
HLA-A*3002
  IC50: 418 nM

## ITYSAHDTTV
HLA-A*6802; [5]
  IC50: 82 nM

## KIFASVAIL
HLA-A*0202; [3]
  IC50: 16 nM
HLA-A*0203; [6]
  IC50: 21 nM
HLA-A*6802; [5]
  IC50: 363 nM

## KLTPRCVTL
HLA-A*0202
  IC50: 150 nM
HLA-A*0203
  IC50: 20 nM
HLA-A*0206
  IC50: 1550 nM
HLA-A*6802
  IC50: > 63500 nM

## KMTFLCVQM
HLA-A*0202; [3]
  IC50: 22 nM
HLA-A*0203; [6]
  IC50: 525 nM
HLA-A*0206; [4]
  IC50: 100 nM
HLA-A*6802; [5]
  IC50: 8740 nM
